Read-outs that look alike come from different tables or passages of the source.
What was measured:
[1] = target: T1, full length recombinant Pim-3 protein (Homo sapiens, UniProt Q86V86); assay: Pim-3 enzyme assay (HTRF, phosphorylation of biotinylated-BAD (S112) peptide); type: biochemical; conditions: read-out: Pim3 IC50
T1 construct: by full length recombinant Pim-1, Pim-2, or Pim-3 protein; purchased Millipore (UK)
Description: Pim-3 was purchased from Millipore (UK).
The phosphorylation of biotinylated-BAD (S112) peptide by full length recombinant Pim-1, Pim-2, or Pim-3 protein was detected with streptavidin:Allophycocyanin (APC) conjugate and a europium (Eu) labeled antibody directed against phosphorylated-BAD (S112). […] The fluorescence is directly proportional to the amount of phosphorylated BAD peptide present in the reaction.
A reference compound was included on each assay plate in order to validate that plate; on one plate of every assay run, two additional reference compounds were included.
The final buffer conditions were as follows: 60 mM Hepes, pH 7.0, 0.05% BSA, 2 mM DTT. […] The reaction was stopped by the addition of 3 mM EDTA, and fluorescence was measured by an HTRF® Rubystar microplate reader. For each plate, percent of control (POC) values were calculated for each well. Values for the IC50 IP were estimated using a standard 4-parameter logistic model.

[2] = target: T2, full length recombinant Pim-2 protein (Homo sapiens, UniProt Q9P1W9); assay: Pim-2 enzyme assay (HTRF, phosphorylation of biotinylated-BAD (S112) peptide); type: biochemical; conditions: read-out: Pim2_IC50
T2 construct: by full length recombinant Pim-1, Pim-2, or Pim-3 protein; hexahistidine tag followed by a thrombin cleavage site (N); made in house; host or cells: Sf9 (baculovirus) or E. coli (pET28)
T2 sequence (Q9P1W9 whole entry): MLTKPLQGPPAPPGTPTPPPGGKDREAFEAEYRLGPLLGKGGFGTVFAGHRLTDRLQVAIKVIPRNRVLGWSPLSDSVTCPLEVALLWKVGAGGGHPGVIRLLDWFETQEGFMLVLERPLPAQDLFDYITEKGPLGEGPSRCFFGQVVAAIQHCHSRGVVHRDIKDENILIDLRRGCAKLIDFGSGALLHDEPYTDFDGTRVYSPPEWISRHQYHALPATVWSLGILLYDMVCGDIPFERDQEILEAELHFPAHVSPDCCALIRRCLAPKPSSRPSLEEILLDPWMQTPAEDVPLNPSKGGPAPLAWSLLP
Method in brief: (§1)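 HTRF readout (europium anti-pBAD S112 antibody, streptavidin-APC) of biotin-BAD peptide phosphorylation by recombinant full-length Pim-1 or Pim-2, buffer 60 mM Hepes pH 7.0, 2 mM DTT, 0.05% BSA. Enzymes were His6-tagged, from baculovirus/Sf9 or E. coli.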

[3] = target: T3, full length recombinant Pim-1 protein (Homo sapiens, UniProt P11309); assay: Pim-1 enzyme assay (HTRF, phosphorylation of biotinylated-BAD (S112) peptide); type: biochemical; conditions: read-out: Pim_1_IC50
T3 construct: by full length recombinant Pim-1, Pim-2, or Pim-3 protein; hexahistidine tag followed by a thrombin cleavage site (N); made in house; host or cells: Sf9 (baculovirus) or E. coli (pET28)
T3 sequence (P11309 whole entry): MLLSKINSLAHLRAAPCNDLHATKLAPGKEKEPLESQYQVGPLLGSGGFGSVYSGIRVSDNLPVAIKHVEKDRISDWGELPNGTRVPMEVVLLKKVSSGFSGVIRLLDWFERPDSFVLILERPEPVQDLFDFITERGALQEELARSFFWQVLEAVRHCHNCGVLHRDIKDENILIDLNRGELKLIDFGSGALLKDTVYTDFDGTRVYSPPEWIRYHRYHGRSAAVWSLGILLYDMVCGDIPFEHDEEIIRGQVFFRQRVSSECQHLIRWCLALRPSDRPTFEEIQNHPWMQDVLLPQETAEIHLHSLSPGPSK
Method in brief: as §1

[4] = target: T4, Pim-1 stably transfected into the U2OS human osteogenic sarcoma line (Homo sapiens, UniProt P11309); assay: Pim cell assay, phospho-BAD normalized against total BAD, U2OS stably transfected with Pim-1; type: cell-based; conditions: U2OS stably transfected with Pim-1; phospho-BAD normalized against total BAD; 29 min incubation; read-out: Pim1_Cell_IC50_
T4 construct: expressed in transfected cells; host or cells: U2OS human osteogenic sarcoma line
T4 sequence (P11309 whole entry): as above
Method in brief: (§2)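 Read-out is phospho-BAD relative to total BAD, by MSD electrochemiluminescence on lysates, expressed as % phosphoprotein = (2×phospho)/(phospho+total)×100. Engineered U2OS lines carrying stably transfected Pim-1 or Pim-2 received 10-point compound dilutions at 0.3% final DMSO after overnight culture at 37 °C; DMSO-only wells served as high control.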

[5] = target: T5, Pim-2 stably transfected into the U2OS human osteogenic sarcoma line (Homo sapiens, UniProt Q9P1W9); assay: Pim cell assay, phospho-BAD normalized against total BAD, U2OS stably transfected with Pim-2; type: cell-based; conditions: U2OS stably transfected with Pim-2; phospho-BAD normalized against total BAD; 29 min incubation; read-out: Pim2_Cell_IC50_
T5 construct: expressed in transfected cells; host or cells: U2OS human osteogenic sarcoma line
T5 sequence (Q9P1W9 whole entry): as the sequence (Q9P1W9 whole entry) above
Method in brief: as §2

Row | IC50 [1] [nM] | IC50 ([2]; enzyme assay, Pim-2) [nM] | IC50 ([3]; enzyme assay, Pim-1) [nM] | IC50 [2] [nM] | IC50 [4] [nM] | IC50 [3] [nM] | IC50 [5] [nM] | Compound
1 | 34 | 264 | 75 | – | – | – | – | Fc1cccc(F)c1-c1ccc2[nH]nc(-c3cncc(O[C@@H]4CNCC[C@H]4F)n3)c2c1 (single isomer, unassigned) [Example 18, 5-(2,6-difluorophenyl)-3-(6-(trans-4-fluoropiperidin-3-yloxy)pyrazin-2-yl)-1H-indazole]
2 | 172 | 1010 | 227 | – | – | – | – | COc1cncc(-c2ccc3[nH]nc(-c4cncc(OC)c4)c3c2)c1 [Example 29, 3,5-Bis(5-methoxypyridin-3-yl)-1H-indazole]
3 | 104 | 2300 | 124 | – | – | – | – | NC1CCN(c2cncc(-c3n[nH]c4ccc(-c5c(F)cccc5F)cc34)c2)CC1 [Example 35, 1-(5-(5-(2,6-difluorophenyl)-1H-indazol-3-yl)pyridin-3-yl)piperidin-4-amine]
4 | 926 | > 3000 | 629 | – | – | – | – | NC1CCN(c2cncc(-c3n[nH]c4ccc(N5CCCCC5=O)cc34)n2)CC1 [Example 91, 1-(3-(6-(4-amino-1-piperidinyl)-2-pyrazinyl)-1H-indazol-5-yl)-2-piperidinone]
5 | 118 | > 1000 | 86 | – | – | – | – | Nc1cccnc1-c1ccc2[nH]nc(-c3cncc(N4CCC(N)CC4)n3)c2c1 [Example 94, 2-(3-(6-(4-amino-1-piperidinyl)-2-pyrazinyl)-1H-indazol-5-yl)-3-pyridinamine]
6 | 1120 | > 1000 | 848 | – | – | – | – | Nc1ncc(-c2ccc3[nH]nc(-c4cncc(N5CCC(N)CC5)n4)c3c2)c(NC2CCCC2)n1 [Example 96, 5-(3-(6-(4-amino-1-piperidinyl)-2-pyrazinyl)-1H-indazol-5-yl)-N~4~-cyclopentyl-2,4-pyrimidinediamine]
7 | – | – | – | 12 | 114 | 2 | > 10000 | c1cc2[nH]nc(-c3cncc(NC4CC4)n3)c2cc1-c1cncc(C2CC2)n1 [Example 391, N-cyclopropyl-6-(5-(6-cyclopropyl-2-pyrazinyl)-1H-indazol-3-yl)-2-pyrazinamine]
8 | – | – | – | 66 | 212 | 13 | > 10000 | CC(C)(O)CNc1cncc(-c2n[nH]c3ccc(-c4cncc(C5CC5)n4)cc23)n1 [Example 392]
9 | – | – | – | 25 | 1130 | 17 | 8650 | c1cc2[nH]nc(-c3cncc(O[C@H]4CNCCC45CC5)n3)c2cc1N1CCOCC1 [Example 400]
10 | – | – | – | 19 | 2580 | 9 | > 15800 | Cc1ccccc1-c1ccc2[nH]nc(-c3cncc(O[C@H]4CNCCC45CC5)n3)c2c1 [Example 404]
11 | – | – | – | 51 | 2070 | 20 | > 15800 | FC(F)(F)c1ccccc1-c1ccc2[nH]nc(-c3cncc(O[C@H]4CNCCC45CC5)n3)c2c1 [Example 407]
12 | – | – | – | 50 | 1150 | 19 | 31700 | Brc1ccc2[nH]nc(-c3cncc(O[C@@H]4CNCCC45CC5)n3)c2c1 [Example 421]
13 | – | – | – | 8 | 204 | 2 | 8790 | CC(C)OC(=O)c1ccc2[nH]nc(-c3cncc(N4CCC(N)CC4)n3)c2c1 [Example 470]
14 | – | – | – | 44 | 221 | 4 | 9630 | COC(=O)c1ccc2[nH]nc(-c3cncc(N[C@@H]4CCCNC4)n3)c2c1 [Example 473]
15 | – | – | – | 52 | 108 | 2 | 14600 | CC(C)OC(=O)c1ccc2[nH]nc(-c3cncc(N[C@@H]4CCCNC4)n3)c2c1 [Example 474, 1-methylethyl 3-(6-((3R)-3-piperidinylamino)-2-pyrazinyl)-1H-indazole-5-carboxylate]
16 | – | – | – | 144 | 588 | 18 | 31600 | COC(=O)c1ccc2[nH]nc(-c3cncc(O[C@@H]4CCCNC4)n3)c2c1 [Example 476]
17 | – | – | – | 126 | 348 | 8 | 20300 | CC(C)OC(=O)c1ccc2[nH]nc(-c3cncc(O[C@@H]4CCCNC4)n3)c2c1 [Example 477]

Row | IC50 [1] [nM] | IC50 ([2]; enzyme assay, Pim-2) [nM] | IC50 ([3]; enzyme assay, Pim-1) [nM] | IC50 [2] [nM] | IC50 [4] [nM] | IC50 [3] [nM] | IC50 [5] [nM] | Compound
18 | – | – | – | 4 | 1200 | 1 | > 31600 | NC1CCN(c2cc(O)nc(-c3n[nH]c4ccc(-c5c(F)cccc5F)cc34)n2)CC1 [Example 482]
19 | – | – | – | 32 | 219 | 4 | > 31600 | Oc1cc(-c2c[nH]c3ccc(-c4c(F)cccc4F)cc23)nc(N2CCOCC2)n1 [Example 483]
20 | – | – | – | 54 | 522 | 13 | > 15800 | COC(=O)c1ccc2[nH]nc(-c3ccnc(N[C@@H]4CCCNC4)n3)c2c1 [Example 490]
21 | – | – | – | 33 | 3740 | 15 | > 31600 | COc1cc(-c2n[nH]c3ccc(-c4c(F)cccc4F)cc23)nc(N2CCC(N)CC2)n1 [Example 506]
22 | – | – | – | 65 | > 31600 | 3 | > 31600 | NC1CCN(c2cncc(-c3n[nH]c4ccc(-c5nccc6[nH]ccc56)cc34)n2)CC1 [Example 507]
23 | – | – | – | 78 | 1010 | 17 | > 31600 | CC(C)Oc1cncc(-c2ccc3[nH]cc(-c4nnc(N5CCC[C@H](N)C5)o4)c3c2)n1 [Example 510]
24 | – | – | – | 7 | 12000 | 3 | > 31600 | Oc1cc(N[C@@H]2CCCNC2)nc(-c2c[nH]c3ccc(-c4c(F)cccc4F)cc23)n1 [Example 515]
25 | – | – | – | 142 | 861 | 6 | > 31600 | NC1CCN(c2ccnc(-c3n[nH]c4ccc(-c5c(F)cccc5F)cc34)n2)CC1 [Example 516]
26 | – | – | – | 65 | 176 | 2 | > 31600 | NC1CCN(c2cncc(-c3c[nH]c4ccc(-c5cncc(C6CC6)n5)cc34)n2)CC1 [Example 517]
27 | – | – | – | 97 | 6920 | 25 | > 31600 | CC(C)Oc1cncc(-c2ccc3[nH]cc(-c4nnc(N[C@@H]5CCCNC5)o4)c3c2)n1 [Example 518]
28 | – | – | – | 128 | 338 | 1 | > 31600 | NC1CCN(c2cncc(-c3c[nH]c4ccc(-c5cncc(NC6CC6)n5)cc34)n2)CC1 [Example 519]
29 | – | – | – | 18 | 1010 | 5 | > 31600 | CC(C)Nc1nc(-c2n[nH]c3ccc(-c4c(F)cccc4F)cc23)cc(=O)[nH]1 [Example 524]
30 | – | – | – | 36 | 779 | 13 | > 15800 | CC(C)Oc1nc(-c2n[nH]c3ccc(-c4c(F)cccc4F)cc23)cc(=O)[nH]1 [Example 528]
31 | – | – | – | 8 | 156 | 2 | 3800 | COC(=O)c1ccc2[nH]nc(-c3cncc(N4CCC(N)CC4)n3)c2c1 [Example 558, methyl 3-(6-(4-amino-1-piperidinyl)-2-pyrazinyl)-1H-indazole-5-carboxylate]
32 | – | – | – | 2 | 1760 | 1 | 13500 | NC1CCN(c2nc(O)cc(-c3n[nH]c4ccc(-c5c(F)cccc5F)cc34)n2)CC1 [Example 565]
33 | – | – | – | 23 | 5590 | 4 | > 31600 | NC1CCN(c2cc(O)nc(-c3c[nH]c4ccc(-c5c(F)cccc5F)cc34)n2)CC1 [Example 566]

Row | Compound | IC50 [1] [nM] | IC50 ([2]; enzyme assay, Pim-2) [nM] | IC50 ([3]; enzyme assay, Pim-1) [nM] | IC50 [2] [nM] | IC50 [4] [nM] | IC50 [3] [nM] | IC50 [5] [nM]
34 | 3-(6-(4-amino-1-piperidinyl)-2-pyrazinyl)-N-benzyl-1H-indole-5-carboxamide [Example 241] | 538 | 2480 | 376 | – | – | – | –
35 | 3-(6-(4-amino-1-piperidinyl)-2-pyrazinyl)-N-phenyl-1H-indole-5-carboxamide [Example 240] | 719 | > 3000 | 254 | – | – | – | –
